Results reported in PubChem BioAssay (NCI).
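A five-concentration, 48-hour dose response in 96-well plates underlies each endpoint, interpolated linearly between surrounding concentrations. At the TGI there is no net growth.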

Assays:
Experiment in all cases: inhibition of tumour cell growth, NCI panel, 48 h
786-0 renal = test system: 786-0 renal
A498 renal = test system: A498 renal
A549 NSCLC = test system: A549 NSCLC
ACHN renal = test system: ACHN renal
BT-549 breast = test system: BT-549 breast
CAKI-1 renal = test system: CAKI-1 renal
CCRF-CEM leukemia = test system: CCRF-CEM leukemia
COLO 205 colon = test system: COLO 205 colon
DU-145 prostate = test system: DU-145 prostate
EKVX NSCLC = test system: EKVX NSCLC
HCC-2998 colon = test system: HCC-2998 colon
HCT-116 colon = test system: HCT-116 colon
HCT-15 colon = test system: HCT-15 colon
HL-60(TB) leukemia = test system: HL-60(TB) leukemia
HOP-62 NSCLC = test system: HOP-62 NSCLC
HOP-92 NSCLC = test system: HOP-92 NSCLC
HS 578T breast = test system: HS 578T breast
HT29 colon = test system: HT29 colon
IGROV1 ovarian = test system: IGROV1 ovarian
K-562 leukemia = test system: K-562 leukemia
KM12 colon = test system: KM12 colon
LOX IMVI melanoma = test system: LOX IMVI melanoma
M14 melanoma = test system: M14 melanoma
MALME-3M melanoma = test system: MALME-3M melanoma
MCF7 breast = test system: MCF7 breast
MDA-MB-231 breast = test system: MDA-MB-231 breast
MDA-MB-435 = test system: MDA-MB-435
MOLT-4 leukemia = test system: MOLT-4 leukemia
NCI-H226 lung = test system: NCI-H226 lung
NCI-H23 lung = test system: NCI-H23 lung
NCI-H460 lung = test system: NCI-H460 lung
NCI-H522 lung = test system: NCI-H522 lung
NCI/ADR-RES ovarian = test system: NCI/ADR-RES ovarian
OVCAR-3 ovarian = test system: OVCAR-3 ovarian
OVCAR-4 ovarian = test system: OVCAR-4 ovarian
OVCAR-5 ovarian = test system: OVCAR-5 ovarian
OVCAR-8 ovarian = test system: OVCAR-8 ovarian
PC-3 prostate = test system: PC-3 prostate
RPMI-8226 leukemia = test system: RPMI-8226 leukemia
RXF 393 renal = test system: RXF 393 renal
SF-268 CNS = test system: SF-268 CNS
SF-295 CNS = test system: SF-295 CNS
SF-539 CNS = test system: SF-539 CNS
SK-MEL-2 melanoma = test system: SK-MEL-2 melanoma
SK-MEL-28 melanoma = test system: SK-MEL-28 melanoma
SK-MEL-5 melanoma = test system: SK-MEL-5 melanoma
SK-OV-3 ovarian = test system: SK-OV-3 ovarian
SN12C renal = test system: SN12C renal
SNB-19 CNS = test system: SNB-19 CNS
SNB-75 CNS = test system: SNB-75 CNS
SR leukemia = test system: SR leukemia
SW-620 colon = test system: SW-620 colon
T-47D breast = test system: T-47D breast
TK-10 renal = test system: TK-10 renal
U251 CNS = test system: U251 CNS
UACC-257 melanoma = test system: UACC-257 melanoma
UACC-62 melanoma = test system: UACC-62 melanoma
UO-31 renal = test system: UO-31 renal
MDA-N = test system: MDA-N

CCSC(=O)/C=C1\CN(C(=O)OC(C)(C)C)C1C(=O)OC(C)(C)C (configuration not stated)
TGI (786-0 renal): 6.23 µM
TGI (A498 renal): 23.9 µM
TGI (A549 NSCLC): 26.4 µM
TGI (ACHN renal): 8.82 µM
TGI (BT-549 breast): 22.4 µM
TGI (CAKI-1 renal): 13.3 µM
TGI (CCRF-CEM leukemia): 3.97 µM
TGI (COLO 205 colon): 5.48 µM
TGI (DU-145 prostate): 16.3 µM
TGI (EKVX NSCLC): 26 µM
TGI (HCC-2998 colon): 17.2 µM
TGI (HCT-116 colon): 3 µM
TGI (HCT-15 colon): 3.93 µM
TGI (HL-60(TB) leukemia): 4.42 µM
TGI (HOP-62 NSCLC): 28.9 µM
TGI (HOP-92 NSCLC): 8.4 µM
TGI (HS 578T breast): 19.4 µM
TGI (HT29 colon): > 35.4 µM
TGI (IGROV1 ovarian): 14.6 µM
TGI (K-562 leukemia): 4.63 µM
TGI (KM12 colon): 12.3 µM
TGI (LOX IMVI melanoma): 3.3 µM
TGI (M14 melanoma): 3.98 µM
TGI (MALME-3M melanoma): 4.42 µM
TGI (MCF7 breast): 16.8 µM
TGI (MDA-MB-231 breast): 12.7 µM
TGI (MDA-MB-435): 8.63 µM
TGI (MOLT-4 leukemia): 4.18 µM
TGI (NCI-H226 lung): 27.5 µM
TGI (NCI-H23 lung): 8.7 µM
TGI (NCI-H460 lung): 23.2 µM
TGI (NCI-H522 lung): 5.79 µM
TGI (NCI/ADR-RES ovarian): > 23.7 µM
TGI (OVCAR-3 ovarian): 6.13 µM
TGI (OVCAR-4 ovarian): 7.44 µM
TGI (OVCAR-5 ovarian): 14.3 µM
TGI (OVCAR-8 ovarian): 7.85 µM
TGI (PC-3 prostate): 18.1 µM
TGI (RPMI-8226 leukemia): 4.77 µM
TGI (RXF 393 renal): 3.76 µM
TGI (SF-268 CNS): 21.6 µM
TGI (SF-295 CNS): 25 µM
TGI (SF-539 CNS): 7.51 µM
TGI (SK-MEL-2 melanoma): 18.4 µM
TGI (SK-MEL-28 melanoma): 3.67 µM
TGI (SK-MEL-5 melanoma): 12.6 µM
TGI (SK-OV-3 ovarian): 28.2 µM
TGI (SN12C renal): 7.06 µM
TGI (SNB-19 CNS): 25.5 µM
TGI (SNB-75 CNS): 17.4 µM
TGI (SR leukemia): 2.48 µM
TGI (SW-620 colon): 4.1 µM
TGI (T-47D breast): 13.4 µM
TGI (TK-10 renal): 6.39 µM
TGI (U251 CNS): 19.2 µM
TGI (UACC-257 melanoma): 8.91 µM
TGI (UACC-62 melanoma): 10.6 µM
TGI (UO-31 renal): 10 µM

CCCCCCCCNC(=S)/N=C/c1c(O)c2ccccc2oc1=O
TGI (A498 renal): 32.2 µM
TGI (A549 NSCLC): 35.2 µM
TGI (ACHN renal): 29.5 µM
TGI (CCRF-CEM leukemia): 30.9 µM
TGI (COLO 205 colon): 32.3 µM
TGI (DU-145 prostate): 33.6 µM
TGI (EKVX NSCLC): 66.9 µM
TGI (HCC-2998 colon): 26.7 µM
TGI (HCT-116 colon): 31 µM
TGI (HCT-15 colon): 28.4 µM
TGI (HOP-62 NSCLC): 32.2 µM
TGI (K-562 leukemia): 40.1 µM
TGI (KM12 colon): 29.1 µM
TGI (LOX IMVI melanoma): 26 µM
TGI (M14 melanoma): 34.6 µM
TGI (MDA-MB-231 breast): 32.4 µM
TGI (MDA-N): 34.3 µM
TGI (MOLT-4 leukemia): 33.7 µM
TGI (NCI-H226 lung): 51.7 µM
TGI (NCI-H23 lung): 39.7 µM
TGI (NCI-H460 lung): 30.3 µM
TGI (NCI-H522 lung): 22.4 µM
TGI (NCI/ADR-RES ovarian): 47.4 µM
TGI (OVCAR-3 ovarian): 29.1 µM
TGI (OVCAR-4 ovarian): 29.4 µM
TGI (OVCAR-5 ovarian): 28.1 µM
TGI (OVCAR-8 ovarian): 52.4 µM
TGI (PC-3 prostate): 28.5 µM
TGI (RXF 393 renal): 34.8 µM
TGI (SF-295 CNS): 34 µM
TGI (SF-539 CNS): 36.6 µM
TGI (SK-MEL-2 melanoma): 48 µM
TGI (SK-MEL-28 melanoma): 31.1 µM
TGI (SK-MEL-5 melanoma): 30.4 µM
TGI (SN12C renal): 38.7 µM
TGI (SNB-75 CNS): 34.2 µM
TGI (T-47D breast): > 100 µM
TGI (UACC-257 melanoma): 40.9 µM
TGI (UACC-62 melanoma): 28.6 µM
